This note sets out measurements from patent publication US11229623B2 (GlaxoSmithKline Intellectual Property (No.2) Limited, priority 2016, dated 2022).

T1 sequence (Q9HBA0 whole entry): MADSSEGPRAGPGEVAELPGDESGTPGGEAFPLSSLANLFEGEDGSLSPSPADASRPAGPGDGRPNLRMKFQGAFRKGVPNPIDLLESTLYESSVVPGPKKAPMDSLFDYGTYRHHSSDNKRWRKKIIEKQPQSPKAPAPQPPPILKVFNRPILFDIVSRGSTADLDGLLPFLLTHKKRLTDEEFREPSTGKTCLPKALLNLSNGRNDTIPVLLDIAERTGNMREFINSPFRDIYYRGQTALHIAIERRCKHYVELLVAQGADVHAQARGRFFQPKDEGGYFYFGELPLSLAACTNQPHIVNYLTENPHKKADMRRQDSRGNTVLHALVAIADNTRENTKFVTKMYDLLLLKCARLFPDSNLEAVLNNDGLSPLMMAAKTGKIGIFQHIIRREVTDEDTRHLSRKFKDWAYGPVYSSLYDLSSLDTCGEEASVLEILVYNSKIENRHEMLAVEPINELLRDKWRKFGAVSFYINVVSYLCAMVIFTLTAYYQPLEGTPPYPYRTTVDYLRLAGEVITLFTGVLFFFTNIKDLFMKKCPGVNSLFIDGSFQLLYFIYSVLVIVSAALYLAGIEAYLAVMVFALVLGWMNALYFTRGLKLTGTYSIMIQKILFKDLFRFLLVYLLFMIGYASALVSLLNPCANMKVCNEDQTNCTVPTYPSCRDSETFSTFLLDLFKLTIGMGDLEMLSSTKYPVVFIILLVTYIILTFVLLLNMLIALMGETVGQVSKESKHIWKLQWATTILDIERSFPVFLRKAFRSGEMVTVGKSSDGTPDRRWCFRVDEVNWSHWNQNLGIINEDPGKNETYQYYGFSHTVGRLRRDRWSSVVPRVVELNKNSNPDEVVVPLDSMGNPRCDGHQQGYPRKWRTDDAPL

This test has as its target T1, human TRPV4 (Homo sapiens, UniProt Q9HBA0).
T1 construct: expressed in transfected cells; host or cells: BHK/AC9 cells transduced with BacMam virus
In words: FLIPR assay for hTRPV4 expressed in BHK cells: inhibition of Agonist Compound-induced calcium signal. It counts as cell-based. To be noted: hTRPV4 in BHK/AC9 cells, FLIPR calcium signal, agonist at EC80; reported as range class; read-out: IC50. Here is the method:
FLIPR Assay for hTRPV4 Expressed in BHK Cells:
TRPV4 channel activation results in an influx of divalent and monovalent cations including calcium. The resulting changes in intracellular calcium were monitored using a calcium specific fluorescent dye Fluo-4 (MDS Analytical Technologies). BHK/AC9 cells transduced with BacMam virus expressing the human TRPV4 gene at a MOI of 78 were plated in a 384 well poly-D lysine coated plate (15,000 cells/well in 50 μL culture medium containing DMEM/F12 with 15 mM HEPES, 10% FBS, 1% Penicillin-Streptomycin and 1% L-glutamine). Cells were incubated for 24 hours at 37° C. and 5% CO2. Culture medium was then aspirated using a Tecan plate-washer and replaced with 20 μL/well of dye loading buffer: HBSS, 500 μM Brilliant Black (MDS Analytical Technologies), and 2 μM Fluo-4 AM. Dye loaded plates were then incubated in the dark at room temperature for 1-1.5 hours.
With `N#Cc1ccc(O[C@H]2CN(S(=O)(=O)c3ccc(I)cc3)C[C@@]2(O)CO)cc1F` [Example 103, 2-fluoro-4-(((3S,4R)-4-hydroxy-4-(hydroxymethyl)-1-((4-iodophenyl)sulfonyl)pyrrolidin-3-yl)oxy)benzonitrile], the IC50 was in the range of 0.01 to 0.1 µM.
The same measure for `N#Cc1ccc(O[C@H]2CN(S(=O)(=O)c3cccnc3C#N)C[C@]2(O)CO)cc1F` [Example 140, 3-(((3S,4S)-4-(4-cyano-3-fluorophenoxy)-3-hydroxy-3-(hydroxymethyl)pyrrolidin-1-yl)sulfonyl)picolinonitrile]: 0.01 to 0.1 µM; for `C#Cc1cc(C(F)(F)F)ccc1S(=O)(=O)N1C[C@H](Oc2ccc(C#N)c(F)c2)[C@](O)(CO)C1` [Example 225, 4-(((3S,4R)-1-((2-ethynyl-4-(trifluoromethyl)phenyl)sulfonyl)-4-hydroxy-4-(hydroxymethyl)pyrrolidin-3-yl)oxy)-2-fluorobenzonitrile]: 0.0001 to 0.01 µM.
The value for `N#Cc1ccc(O[C@H]2CN(S(=O)(=O)c3ccc(C(F)(F)F)cc3C#N)C[C@@]2(O)CO)cc1` [Example 29, 2-(((3R,4S)-4-(4-cyanophenoxy)-3-hydroxy-3-(hydroxymethyl)pyrrolidin-1-yl)sulfonyl)-5-(trifluoromethyl)benzonitrile] was 0.0001 to 0.01 µM.
For the compound `N#Cc1ccc(O[C@H]2CN(S(=O)(=O)c3ccccc3Br)C[C@@]2(O)CO)cc1F` [Example 117, 4-(((3S,4R)-1-((2-bromophenyl)sulfonyl)-4-hydroxy-4-(hydroxymethyl)pyrrolidin-3-yl)oxy)-2-fluorobenzonitrile], the IC50 was in the range of 0.01 to 0.1 µM.
As to `N#Cc1cc(F)c(O[C@H]2CN(S(=O)(=O)c3ccc(C(F)(F)F)cc3C#N)C[C@@]2(O)CO)cc1F` [Example 19, 4-(((3S,4R)-1-((2-cyano-4-(trifluoromethyl)phenyl)sulfonyl)-4-hydroxy-4-(hydroxymethyl)pyrrolidin-3-yl)oxy)-2,5-difluorobenzonitrile], the IC50 is 0.0001 to 0.01 µM.
The same measure for `N#Cc1ccc(O[C@H]2CN(S(=O)(=O)c3ccc(OC(F)(F)F)cn3)C[C@@]2(O)CO)cc1F` [Example 127, 2-fluoro-4-(((3S,4R)-4-hydroxy-4-(hydroxymethyl)-1-((5-(trifluoromethoxy)pyridin-2-yl)sulfonyl)pyrrolidin-3-yl)oxy)benzonitrile]: 0.1 to 1 µM.
For `N#Cc1cc(OCC(F)(F)F)c(O[C@H]2CN(S(=O)(=O)c3ccccc3)C[C@@]2(O)CO)cc1F` [Example 176, 2-fluoro-4-(((3S,4R)-4-hydroxy-4-(hydroxymethyl)-1-(phenylsulfonyl)pyrrolidin-3-yl)oxy)-5-(2,2,2-trifluoroethoxy) benzonitrile], the IC50 lay within 0.01 to 0.1 µM.
The same measure for `N#Cc1ccc(O[C@H]2CN(S(=O)(=O)c3ccc(I)cc3Cl)C[C@@]2(O)CO)cc1F` [Example 115, 4-(((3S,4R)-1-((2-chloro-4-iodophenyl)sulfonyl)-4-hydroxy-4-(hydroxymethyl)pyrrolidin-3-yl)oxy)-2-fluorobenzonitrile]: 0.0001 to 0.01 µM; for `N#Cc1ccc(O[C@H]2CN(S(=O)(=O)c3ccccc3I)C[C@@]2(O)CO)cc1F` [Example 119, 2-fluoro-4-(((3S,4R)-4-hydroxy-4-(hydroxymethyl)-1-((2-iodophenyl)sulfonyl)pyrrolidin-3-yl)oxy)benzonitrile]: 0.0001 to 0.01 µM.
The value for `N#Cc1cc(C(F)(F)F)ccc1S(=O)(=O)N1C[C@H](Oc2ccc(Cl)c(F)c2)[C@](O)(CO)C1` [Example 30, 2-(((3R,4S)-4-(4-chloro-3-fluorophenoxy)-3-hydroxy-3-(hydroxymethyl)pyrrolidin-1-yl)sulfonyl)-5-(trifluoromethyl)benzonitrile] was 0.0001 to 0.01 µM.
In the case of `N#Cc1ccc(O[C@H]2CN(S(=O)(=O)c3ccc(F)cn3)C[C@@]2(O)CN)cc1F` [Example 242, 4-(((3S,4S)-4-(aminomethyl)-1-((5-fluoropyridin-2-yl)sulfonyl)-4-hydroxpyrrolidin-3-yl)oxy)-2-fluorobenzonitrile, 2,2,2-trifluoroacetate], the IC50 fell in the range of 0.01 to 0.1 µM.
The value for `N#Cc1cc(C(F)(F)F)ccc1S(=O)(=O)N1C[C@H](Oc2ccccc2)[C@](O)(CO)C1` [Example 46, 2-(((3R,4S)-3-hydroxy-3-(hydroxymethyl)-4-phenoxypyrrolidin-1-yl)sulfonyl)-5-(trifluoromethyl)benzonitrile] was 0.01 to 0.1 µM; that for `N#Cc1ccc(S(=O)(=O)N2C[C@H](Oc3ccc(C#N)c(F)c3)[C@](O)(CO)C2)c(F)c1` [Example 113, 4-(((3S,4R)-1-((4-cyano-2-fluorophenyl)sulfonyl)-4-hydroxy-4-(hydroxymethyl)pyrrolidin-3-yl)oxy)-2-fluorobenzonitrile] was 0.0001 to 0.01 µM.
The value for `N#Cc1ccc(O[C@H]2CN(S(=O)(=O)c3ccc(Cl)s3)C[C@@]2(O)CO)cc1F` [Example 86, 4-(((3S,4R)-1-((5-chlorothiophen-2-yl)sulfonyl)-4-hydroxy-4-(hydroxymethyl)pyrrolidin-3-yl)oxy)-2-fluorobenzonitrile] was 0.01 to 0.1 µM; that for `N#Cc1ccc(O[C@H]2CN(S(=O)(=O)c3ccc(OC(F)(F)F)cn3)C[C@@]2(O)CN)cc1F` [Example 248, 4-(((3S,4S)-4-(aminomethyl)-4-hydroxy-1-((5-(trifluoromethoxy)pyridin-2-yl)sulfonyl)pyrrolidin-3-yl)oxy)-2-fluorobenzonitrile] was 0.01 to 0.1 µM.
The same measure for `CCC[C@H](O)[C@]1(O)CN(S(=O)(=O)c2ccc(Cl)cn2)C[C@@H]1Oc1ccc(C#N)c(F)c1` [Example 189, 4-(((3S,4R)-1-((5-chloropyridin-2-yl)sulfonyl)-4-hydroxy-4-((S)-1-hydroxybutyl)pyrrolidin-3-yl)oxy)-2-fluorobenzonitrile]: 0.01 to 0.1 µM.
On to `N#Cc1ccc(O[C@H]2CN(S(=O)(=O)c3ccc(C(F)(F)F)cc3C#N)C[C@@]2(O)CO)c(OC2CC2)c1` [Example 45, 2-(((3R,4S)-4-(4-cyano-2-cyclopropoxyphenoxy)-3-hydroxy-3-(hydroxymethyl)pyrrolidin-1-yl)sulfonyl)-5-(trifluoromethyl)benzonitrile], for which the IC50 is 0.0001 to 0.01 µM.
The same measure for `N#Cc1cc(C(F)(F)F)ccc1S(=O)(=O)N1C[C@H](Oc2ccc(F)c(Cl)c2)[C@](O)(CO)C1` [Example 41, 2-(((3R,4S)-4-(3-chloro-4-fluorophenoxy)-3-hydroxy-3-(hydroxymethyl)pyrrolidin-1-yl)sulfonyl)-5-(trifluoromethyl)benzonitrile]: 0.01 to 0.1 µM.
The value for `N#Cc1ccc(O[C@H]2CN(S(=O)(=O)c3ccc(Br)cc3C#N)C[C@]2(O)CO)cc1F` [Example 143, 4-(((3S,4S)-1-((4-bromo-2-cyanophenyl)sulfonyl)-4-hydroxy-4-(hydroxymethyl)pyrrolidin-3-yl)oxy)-2-fluorobenzonitrile] was 0.0001 to 0.01 µM; that for `N#Cc1ccc(O[C@H]2CN(S(=O)(=O)c3ccc(C(F)(F)F)nc3)C[C@@]2(O)CO)cc1F` [Example 5, 2-fluoro-4-(((3S,4R)-4-hydroxy-4-(hydroxymethyl)-1-((6-(trifluoromethyl)pyridin-3-yl)sulfonyl)pyrrolidin-3-yl)oxy)benzonitrile] was 0.1 to 1 µM; that for `CC(C)COc1cc(C#N)c(F)cc1O[C@H]1CN(S(=O)(=O)c2ccc(C(F)(F)F)nc2)C[C@@]1(O)CO` [Example 183, 2-fluoro-4-(((3S,4R)-4-hydroxy-4-(hydroxymethyl)-1-((6-(trifluoromethyl)pyridin-3-yl)sulfonyl)pyrrolidin-3-yl)oxy)-5-isobutoxybenzonitrile] was 0.01 to 0.1 µM.
With `N#Cc1ccc(O[C@H]2CN(S(=O)(=O)c3ccc(C(F)(F)F)cc3C#N)C[C@@]2(O)CO)c(O)c1` [Example 168, 2-(((3R,4S)-4-(4-cyano-2-hydroxyphenoxy)-3-hydroxy-3-(hydroxymethyl)pyrrolidin-1-yl)sulfonyl)-5-(trifluoromethyl)benzonitrile], the IC50 lay within 0.01 to 0.1 µM.
The value for `N#Cc1ccc(O[C@H]2CN(S(=O)(=O)c3ccc(Cl)cn3)C[C@@]2(O)CO)c2ccccc12` [Example 57, 4-(((3S,4R)-1-((5-chloropyridin-2-yl)sulfonyl)-4-hydroxy-4-(hydroxymethyl)pyrrolidin-3-yl)oxy)-1-naphthonitrile] was 0.01 to 0.1 µM; that for `N#Cc1ccc(S(=O)(=O)N2C[C@H](Oc3ccc(Cl)cc3)[C@](O)(CO)C2)cn1` [Example 109, 5-(((3R,4S)-4-(4-chlorophenoxy)-3-hydroxy-3-(hydroxymethyl)pyrrolidin-1-yl)sulfonyl)picolinonitrile] was 0.01 to 0.1 µM.
On to `N#Cc1ccc(O[C@H]2CN(S(=O)(=O)c3ccc(C(F)F)cn3)C[C@@]2(O)CN)cc1F` [Example 244, 4-(((3S,4S)-4-(aminomethyl)-1-((5-(difluoromethyl)pyridin-2-yl)sulfonyl)-4-hydroxpyrrolidin-3-yl)oxy)-2-fluorobenzonitrile], for which the IC50 is 0.01 to 0.1 µM.
The value for `N#Cc1cc(Cl)ccc1S(=O)(=O)N1C[C@H](Oc2ccc(C(F)(F)F)cc2)[C@](O)(CO)C1` [Example 156, 5-chloro-2-(((3R,4S)-3-hydroxy-3-(hydroxymethyl)-4-(4-(trifluoromethyl)phenoxy)pyrrolidin-1-yl)sulfonyl)benzonitrile] was 0.0001 to 0.01 µM.
In the case of `CCCOc1cc(C#N)ccc1O[C@H]1CN(S(=O)(=O)c2ccc(C(F)(F)F)cc2C#N)C[C@@]1(O)CO` [Example 166, 2-(((3R,4S)-4-(4-cyano-2-propoxyphenoxy)-3-hydroxy-3-(hydroxymethyl)pyrrolidin-1-yl)sulfonyl)-5-(trifluoromethyl)benzonitrile], the IC50 lay within 0.0001 to 0.01 µM.

The term IC50 denotes the concentration at which inhibition is half-maximal.
